Each block holds one molecule with its values, some of them ahead of it. Ends that are not written are not given here. Peptide text beside a SMILES is read from it.
What was measured:
Assay type in all cases: cell-based
TNFα = TNFα (Homo sapiens, UniProt P01375); assay: TNFα inhibition in L929 cells; conditions: for O.D. (TNFα inhibition): O.D. at 490/630 nm
Description: (§1) In vitro L929 cell proliferation/cytotoxicity assay was measured in a microtiter plate. L929 cells were cultured in the Eagle's minimum essential medium (EMEM) containing 10% bovine serum, 1% P/S and 1% non-essential amino acids. Converged L929 cells were washed by 2 ml of a phosphate buffer solution (PBS) and then treated with trypsin, followed by resuspension in the EMEM. 200 μl of the cell suspension were taken by suction for cell density counting, and the remaining cell suspension were centrifuged at 1500 rpm for 5 minutes. The supernatant was removed, and the EMEM was added for diluting the cells to form a final concentration of 1.5×10^5 cells/ml. 100 μl of the resultant cell suspension were added to each well of a 96-well flat-bottom microtiter plate, and then incubated at 37° C. and 5% CO2 for 24 hours.
GEKG and KTTKS were re-solved with 1× PBS to form solutions having a concentration equivalent to 1 mg GEKG/ml and 1 mg KTTKS/ml, respectively, followed by further dilution with 1× PBS to form solutions having a concentration of 500, 125, 31.25 […], respectively, and the resultant diluted solutions were mixed with a TNFα solution with an equal volume, and incubated for 1 hour. 50 μl of each of the 4 mixtures were added to the above 96-well flat-bottom microtiter plate containing L929 cells incubated for 24 hours, and actinomycin D (ActD) with a final concentration of 2 μg/ml and TNFα with a final concentration of 0.1 ng/ml were added to each well. Test wells containing 2 μg/ml ActD only and 0.1 ng/ml TNFα only were used as positive controls and blank controls, respectively. The resultant 96-well flat-bottom microtiter plate was further incubated at 37° C. and 5% CO2 for 24 hours. O.D. values at 490/630 nm were measured by a microplate reader. TNFα inhibition was calculated by the following formula: […]

[1] = Cytotoxicity to L929 cells (XTT); conditions: mouse, L929 cells
Description: as §1
(§2) GEKG and KTTKS were re-solved with 1× PBS to form solutions having a concentration equivalent to 1 mg GEKG/ml and 1 mg KTTKS/ml, respectively, followed by further […], respectively. 50 μl of each of the 4 diluted solutions were added to the above 96-well flat-bottom microtiter plate containing L929 cells incubated for 24 hours, and ActD with a final concentration of 2 μg/ml was added to each well. The resultant 96-well flat-bottom microtiter plate was further incubated at 37° C. and 5% CO2 for 24 hours, followed by addition of 50 μl of 2,3-bis(2-methoxy-4-nitro-5-sulfophenyl)-5-[(phenylamino)carbonyl]-2H-tetrazolium hydroxide (XTT) to each well and further incubation for 1 hour. O.D. values at 490/630 nm were measured by a microplate reader. Cytotoxicity was calculated by the following formula: […]

L929 cells = assay: Cytotoxicity to L929 cells (XTT); conditions: for O.D. (cytotoxicity): O.D. at 490/630 nm; for Cytotoxicity to L929 cells (in words): series of dilutions
Description: as §1, §2

macrophages [2] = assay: NO production from macrophages induced by LPS; conditions: in vitro; FIGS. 3 and 4
Description: In vitro anti-inflammation of GEKG and KTTKS was evaluated by using the well-known inflammation model of NO production from macrophages induced by lipopolysaccharide (LPS).

macrophages [3] = assay: H2O2 production from macrophages induced by LPS; conditions: in vitro; FIG. 5
Description: An ability of GEKG and KTTKS against inflammatory oxidation pressure in vitro was evaluated by using the well-known inflammation model of H2O2 production from macrophages induced by lipopolysaccharide (LPS).

[4] = test system: primary oral epithelial cells; assay: Proliferation of primary oral epithelial cells; conditions: different concentrations, in vitro; FIG. 6
[5] = test system: primary oral epithelial cells; assay: Death of primary oral epithelial cells induced by free radical H2O2; conditions: different concentrations, in vitro; FIG. 7
[6] = test system: human gingival fibroblasts (HGF); assay: Proliferation of human gingival fibroblasts (HGF); conditions: different concentrations, in vitro; FIG. 8A
Type I collagen = assay: Gene expression of Type I collagen in human gingival fibroblasts (RT-PCR); conditions: concentration of 0 to 40 μl, FIG. 8B
Description: Production of Type I collagen in human gingival fibroblasts was observed. There is a dose-dependent relationship between expression of Type I collagen and GEKG and KTTKS in a concentration of 0 to 40 μl.

TGF-β1 = assay: Gene expression of TGF-β1 in human gingival fibroblasts (RT-PCR); conditions: human HGF, FIG. 9A, 9B
human HGF = assay: Synthesis of extracellular matrix (ECM) from human HGF; conditions: 50 μM KTTKS or GEKG; TGF-β1 0, 0.5 and 5 ng/ml; FIG. 10
Description: It is determined whether or not there exists synergism between GEKG or KTTKS and TGF-β1 in the synthesis of ECM when human HGF was treated with TGF-β1 (0.5 or 5 ng/ml) alone or in combination with KTTKS or GEKG (50 µM).
Human HGF were pre-cultured in the Dulbecco's Modified Eagle Medium (DMEM) containing 0.2% bovine serum for 24 hours, and then treated with 3 different concentrations (0, 0.5 and 5 ng/ml) of TGF-β1 for 24 hours, followed by further culturing for 24 hours in the absence of KTTKS and GEKG (solid line) or in the presence of 50 μM KTTKS or GEKG (dotted line).

TNFα, sequence (P01375 77-233 limits assumed, species assumed): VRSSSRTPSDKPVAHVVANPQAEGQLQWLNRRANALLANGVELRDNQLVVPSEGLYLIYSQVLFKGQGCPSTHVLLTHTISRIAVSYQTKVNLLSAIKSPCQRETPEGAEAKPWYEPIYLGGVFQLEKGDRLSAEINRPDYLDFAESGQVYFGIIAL

O.D. (TNFα inhibition) (TNFα; GEKG dilution 1/16): 1.60
O.D. (TNFα inhibition) (TNFα; GEKG dilution 1/64): 0.80
O.D. (TNFα inhibition) (TNFα; GEKG dilution 1/256): 0.61
O.D. (TNFα inhibition) (TNFα; GEKG dilution 1/512): 0.56
O.D. (TNFα inhibition) (TNFα; GEKG dilution 1/1024): 0.51
O.D. (TNFα inhibition) (TNFα; GEKG dilution 1/2048): 0.48
O.D. (TNFα inhibition) (TNFα; GEKG dilution 1/4096): 0.51
O.D. (TNFα inhibition) (TNFα; GEKG dilution ¼): 2.87
Molecule: NCCCC[C@H](NC(=O)[C@H](CCC(=O)O)NC(=O)CN)C(=O)NCC(=O)O [GEKG] (H-GEKG-OH)
cytotoxicity at 24 h ([1]; GEKG dilution 1/16): -12.3%
cytotoxicity at 24 h ([1]; GEKG dilution 1/64): -2.32%
cytotoxicity at 24 h ([1]; GEKG dilution 1/256): -4.61%
cytotoxicity at 24 h ([1]; GEKG dilution 1/512): -1.71%
cytotoxicity at 24 h ([1]; GEKG dilution 1/1024): 0.11%
cytotoxicity at 24 h ([1]; GEKG dilution 1/2048): 1.9%
cytotoxicity at 24 h ([1]; GEKG dilution 1/4096): -4.72%
cytotoxicity at 24 h ([1]; GEKG dilution ¼): -58.7%
O.D. (cytotoxicity) (L929 cells; GEKG dilution 1/16): 2.01
O.D. (cytotoxicity) (L929 cells; GEKG dilution 1/64): 1.83
O.D. (cytotoxicity) (L929 cells; GEKG dilution 1/256): 1.87
O.D. (cytotoxicity) (L929 cells; GEKG dilution 1/512): 1.82
O.D. (cytotoxicity) (L929 cells; GEKG dilution 1/1024): 1.79
O.D. (cytotoxicity) (L929 cells; GEKG dilution 1/2048): 1.75
O.D. (cytotoxicity) (L929 cells; GEKG dilution 1/4096): 1.87
O.D. (cytotoxicity) (L929 cells; GEKG dilution ¼): 2.84
Cytotoxicity to L929 cells (in words) (L929 cells): does not induce cytotoxicity
Inhibition of NO production from macrophages induced by LPS (macrophages [2]): inhibit NO production from macrophages induced by LPS in a dose-dependent manner
Inhibition of H2O2 production from macrophages induced by LPS (macrophages [3]): inhibit H2O2 production from macrophages induced by LPS in a dose-dependent manner
Promotion of proliferation of primary oral epithelial cells [4]: promote proliferation of primary oral epithelial cells in vitro in a dose-dependent manner
Reduction of death of primary oral epithelial cells induced by free radical H2O2 [5]: reduce death of primary oral epithelial cells induced by free radical H2O2 in vitro in a dose-dependent manner
Effect on proliferation of HGF [6]: neither GEKG nor KTTKS in different concentrations exhibits a significant effect in promoting proliferation of HGF
Gene expression of Type I collagen (Type I collagen): stimulate gene expression of Type I collagen in transcription
Gene expression of TGF-β1 (TGF-β1): stimulate gene expression of TGF-β1 in transcription
Synthesis of ECM (collagen and fibrin) from human HGF (human HGF): exhibit a more significant ability in inducing human HGF for synthesizing ECM than TGF-β1

O.D. (TNFα inhibition) (TNFα; KTTKS 4.156 μg/ml): 0.479
O.D. (TNFα inhibition) (TNFα; KTTKS 16.625 μg/ml): 0.597
O.D. (TNFα inhibition) (TNFα; KTTKS 66.5 μg/ml): 1.042
O.D. (TNFα inhibition) (TNFα; KTTKS 266 μg/ml): 2.363
inhibition at 4.156 µg/mL (TNFα; L929, KTTKS 4.156 μg/ml): 10.5%
inhibition at 16.625 µg/mL (TNFα; L929, KTTKS 16.625 μg/ml): 21.1%
inhibition at 66.5 µg/mL (TNFα; L929, KTTKS 66.5 μg/ml): 60.9%
inhibition at 266 µg/mL (TNFα; L929, KTTKS 266 μg/ml): 179%
Molecule: KTTKS [KTTKS]
cytotoxicity at 24 h, 4.156 μg/ml ([1]; KTTKS 4.156 μg/ml): -8.3%
cytotoxicity at 24 h, 16.625 μg/ml ([1]; KTTKS 16.625 μg/ml): -3.9%
cytotoxicity at 24 h, 66.5 μg/ml ([1]; KTTKS 66.5 μg/ml): -20.8%
cytotoxicity at 24 h, 266 μg/ml ([1]; KTTKS 266 μg/ml): -77.1%
O.D. (cytotoxicity) (L929 cells; KTTKS 4.156 μg/ml): 1.600
O.D. (cytotoxicity) (L929 cells; KTTKS 16.625 μg/ml): 1.535
O.D. (cytotoxicity) (L929 cells; KTTKS 66.5 μg/ml): 1.784
O.D. (cytotoxicity) (L929 cells; KTTKS 266 μg/ml): 2.616
Cytotoxicity to L929 cells (in words) (L929 cells): does not induce cytotoxicity
Inhibition of NO production from macrophages induced by LPS (macrophages [2]): inhibit NO production from macrophages induced by LPS in a dose-dependent manner
Inhibition of H2O2 production from macrophages induced by LPS (macrophages [3]): inhibit H2O2 production from macrophages induced by LPS in a dose-dependent manner
Promotion of proliferation of primary oral epithelial cells [4]: promote proliferation of primary oral epithelial cells in vitro in a dose-dependent manner
Reduction of death of primary oral epithelial cells induced by free radical H2O2 [5]: reduce death of primary oral epithelial cells induced by free radical H2O2 in vitro in a dose-dependent manner
Effect on proliferation of HGF [6]: neither GEKG nor KTTKS in different concentrations exhibits a significant effect in promoting proliferation of HGF
Gene expression of Type I collagen (Type I collagen): stimulate gene expression of Type I collagen in transcription
Gene expression of TGF-β1 (TGF-β1): stimulate gene expression of TGF-β1 in transcription
Synthesis of ECM (collagen and fibrin) from human HGF (human HGF): exhibit a more significant ability in inducing human HGF for synthesizing ECM than TGF-β1

Molecule: TGF-β1: tumor growth factor-β1 used at 0.5 or 5 ng/ml to treat human HGF [reference compound]
Synthesis of ECM (collagen and fibrin) from human HGF (human HGF): up-regulate biosynthesis of ECM

From US12383598B2, “Method for treating gingivitis and gingival atrophy and repairing oral mucosa” (ADVANCED HEALTHTECH BIOPEPTIDE LABORATORIES CO., LTD, priority 2021, dated 2025)
